Our source for the melting point values is a melting point compilation (Tetko et al.; mined from patent text by program, amines drawn as free bases though some values may be those of a salt).

Broadly, the melting point is the temperature, or range, at which the solid turns liquid.

`C=Cc1ncc2[nH]c3cccc(OCc4ccccc4)c3c2c1COC` returned a melting point of 183 to 185 °C.
For `COC(=O)C=Cc1cnc(SC)nc1N`, the melting point fell in the range of 192 to 196 °C.
`Nc1ccc(N2CCOCC2)c(C(=O)O)c1` gave a melting point of 307 to 308 °C.
Turning to `CCCCC(O)(c1cn(C(c2ccccc2)(c2ccccc2)c2ccccc2)cn1)c1cc(Cl)cc2c1OC(C)(C)OC2` (configuration not stated), the melting point was 124 °C.
For the compound `O=C(NCc1ccc(Cl)cc1)c1cnc2cccc(O)c2c1O`, the melting point is 235 to 238 °C.
`NC(=O)OCC(O)COc1cc(-c2cccc(Cl)c2)on1` (configuration not stated): the melting point fell in the range of 149 to 150 °C.
In turn, `CCOC(=O)c1cn(CCF)c2c(F)c(C(C)=O)c(F)cc2c1=O` came in with a melting point of 155 to 156 °C.
Turning to `CC(C)c1nc(-c2ncn3c2CN(C(=O)N2CCCC2)c2c(F)cccc2-3)no1`, the melting point was 169 to 170 °C.
Consider `c1cnc(-c2n[nH]c(-c3cnccn3)n2)cn1`, for which the melting point was in the range of 269 to 270 °C.
For `CC(C)(C)c1nn(-c2c(Cl)cc(C(F)(F)F)cc2Cl)c(Cl)c1-c1nc(C#N)c(C#N)[nH]1`, the melting point is 118 to 120 °C.
With `O[C@@H]1CN(Cc2ccccc2)C[C@H]1Sc1ccccc1` (relative stereo), the melting point is 97 to 99 °C.
Turning to `O=c1ccc(-c2ccc(OCCCCl)cc2)n[nH]1`, the melting point lay within 191 to 193 °C.
For `CC(C)(F)Cn1c(N)nc2c(N)nc3ccccc3c21`, the melting point turned out to be 251 °C.
In turn, `COc1nc(C)nc(N2CCc3ccccc3CC2)c1[N+](=O)[O-]` gave a melting point of 123 to 128 °C.
The compound `O=CN(O)C(CCO)CS(=O)(=O)c1ccc(-c2ccc(Cl)cc2)cc1` (configuration not stated) had a melting point of 158 to 159 °C.
Compound `CN(C)CC#CCNC(=O)C(O)(c1ccccc1)C1CCCCC1` (single isomer, unassigned; (-)) returned a melting point of 120 to 121 °C.
`CC(C)n1nc(-c2cc(C(=O)N3CCOCC3)cnc2-c2ccccc2)ccc1=O`: the melting point fell in the range of 132 to 133 °C.
`COc1ccc(Nc2nc(Nc3cc4c(cc3OC)CCN(CC(=O)N(C)C)CC4)ncc2Cl)c(OC)n1` showed a melting point of 67 to 76 °C.
`COc1ccc([C@@H]2CN(C)CC[C@@H]2NC(=S)c2ccc(C)cc2)cc1OC` (relative stereo) displayed a melting point of 144 to 146 °C.
In turn, `Cc1ccc(S(=O)(=O)N[C@@H]2CCCC[C@H]2N)cc1` (relative stereo) returned a melting point of 93 to 95 °C.
In turn, `CSc1nc2ccc(C(F)(F)F)cc2[nH]1` displayed a melting point of 145 to 146 °C.
Next, `CN(C)C1CCN(c2cc3c(Cl)cccc3c(=O)[nH]2)CC1`: 210 to 211 °C; `COC(=O)CN1CCC(OC)(c2cccc(OCc3ccc4ccccc4c3)c2)C1` (configuration not stated): 78 to 80 °C; `COc1cccc(C2c3c(C)c(NC(=O)CC(C)(C)C)c(C)c(C)c3OC2(C)C)c1` (configuration not stated): 166 to 167 °C.
Regarding `COC(=O)C(F)(F)CC(C)C1CCC2C3CC=C4CC(OC(C)=O)CCC4(C)C3CCC12C` (configuration not stated), the melting point stood at 132 °C.
For `COc1c(C)c(N2CCN(c3ccc(OC(F)(F)F)cc3)CC2)c(C)c2c1OC(C)(C)C2`, the melting point was in the range of 162 to 164 °C.
`Cc1cc(C#N)nc(Oc2cc(C(F)(F)F)nn2C)c1` gave a melting point of 88 °C.
In the case of `CC(=O)c1ccc2c(c1)S(=O)(=O)c1ccccc1O2`, the melting point lay in the range of 163 to 165 °C.
In the case of `O=C(O)Cc1c(C(=O)O)c2cc(Oc3ccc(C(F)(F)F)cc3)ccc2n1-c1ccc(OC(F)(F)F)cc1`, the melting point was 257 to 259 °C.
Consider `NC(=O)CC[C@H](NC(=O)c1ccc(OCc2ccccc2)cc1OCc1ccccc1)C(=O)N1CCN(Cc2ccccc2)CC1`, for which the melting point was 133 to 135 °C.
As to `CC(C)Oc1ccc(Cc2cc3cccc(-c4cccc(C(=O)NCCO)c4)c3s2)cn1`, the melting point is 106 to 107 °C.
Compound `COC(=O)Nc1nc2cc(F)c(OC(C)c3c(Cl)cccc3Cl)cc2[nH]1` (configuration not stated) showed a melting point of 240 to 245 °C.
Next, `CC(=O)OCCN1CN(C)C(=S)N(c2ccc(C)cc2C)C1`: 80 to 83 °C.
`O=C(OC(c1ccccc1)c1ccccc1)C12CCC1CN(Cc1ccccc1)C2` (configuration not stated): the melting point was in the range of 96 to 99 °C.
`O=c1[nH]c2ccccc2n1CCCN1CCN(c2n[nH]c3ccccc23)CC1` had a melting point of 178 to 180 °C.
As for `COc1ccc(S(=O)(=O)C2(C(=O)NO)CCN(CCCc3ccccc3)CC2)cc1`, the melting point worked out at 143 °C.
Compound `OCCc1c[nH]c(-c2ccccc2OCc2ccccc2)n1` gave a melting point of 131 to 133 °C.
In turn, `CC(=O)Nc1ccc2c3c1c(=O)c(C(=O)O)cn3C1CCCCC21` (configuration not stated) registered a melting point of 187 to 190 °C.
`COc1ccc(S(=O)(=O)N(C)c2cccc(-c3ccnc4c([N+](=O)[O-])cnn34)c2)cc1` gave a melting point of 205 to 206 °C.
`O=C(NCCCC[C@H](NC(=O)OCc1ccccc1)C(=O)Nc1ccc(-c2ccc(C(=O)O)c(=O)[nH]2)cc1)OCc1ccccc1` had a melting point of 199 to 200 °C.
Next, `Cc1cc(Cl)cc(C)c1NC(=O)Oc1ccccc1`: 158 to 160 °C; `O=c1c2cccc3ncc(c(=O)n1CCCCNS(=O)(=O)C(F)(F)F)n32`: 206 to 207 °C.
Next, `COc1cc(CCCC2OC(=O)NC2=O)ccc1OCc1nc(-c2ccccc2)sc1C` (configuration not stated): 128 to 129 °C.
As for `CN1CC(CO)C=C2c3cccc4[nH]c(Cl)c(c34)CC21` (configuration not stated), the melting point was found to be 207 °C.
On to `C=CCNC(=O)c1ccc(-n2c(C)ccc2C)cc1Br`, for which the melting point lay within 136 to 138 °C.
With `COC(=O)CP(=O)(O)C(CCCc1ccccc1)NC(=O)OCc1ccccc1` (configuration not stated), the melting point lay in the range of 107 to 109 °C.
`O=C1NC(=O)C(c2cn3c4c(cccc24)CCC3)=C1c1ccc(OCc2ccccc2)cc1` registered a melting point of 262 to 265 °C.
`COC(=O)Cc1nc2nc(C)cc(Cl)n2n1`: the melting point was in the range of 111 to 112 °C.
Next, `ICCCCCOc1ccc(C2=C(c3ccccc3)CCCc3ccccc32)cc1`: 104 to 106 °C.
On to `O=Cc1c(Br)nc(Sc2ccccc2)n1Cc1cc2c(cc1Cl)OCO2`, for which the melting point was found to be 155 °C.
Next, `CC(C)Cc1cccc(CCCn2c(=O)[nH]c3cc(Cl)cc(Cl)c3c2=O)c1`: 167 to 172 °C; `OC1(CNc2c(Br)cnc3cc(Cl)ccc23)CCCCC1`: 151 to 154 °C; `CCCCc1nc2c(N)nc3ccccc3c2n1CCCNC(=O)c1ccccc1`: 189 to 190 °C.
In turn, `CC(C)Oc1ccc(-c2nc(O)c(C(=O)O)s2)cc1` showed a melting point of 126 to 127 °C.
Next, `C(=C\c1nc(COc2ccc(CCCn3ccnc3)cc2)co1)/c1ccco1`: 122 to 123 °C; `CCOC(=O)C(=CNc1ncc(OC)c2ccccc12)C(=O)OCC`: 150 to 153 °C; `COc1ccc(C#CC(C)N(O)C(N)=O)o1` (configuration not stated): 131 °C.
`CCOC(=O)c1cc2n(C)c3ccc(Cl)cc3c(=O)n2n1`: the melting point fell in the range of 272 to 274 °C.
Turning to `CC(=NO)c1csc(S(N)(=O)=O)c1`, the melting point lay within 185 to 188 °C.
The compound `CCOC(=O)c1cnn2ccc3c(c12)CCO3` showed a melting point of 138 to 139 °C.
Take `Oc1cc(Cl)c2nc(-c3ccc(O)c(F)c3)cc(Br)c2c1`: the melting point lay within 184 to 186 °C.
`CCOC(=O)c1nc2n(n1)-c1ccc([N+](=O)[O-])cc1C(c1ccccc1F)=NC2`: the melting point lay in the range of 165 to 167 °C.
The compound `C=C(COc1ccc(C(=O)CCC(=O)O)cc1F)COc1ccc(C(C)=O)c(O)c1CCC` registered a melting point of 132 to 134 °C.
Next, `CC(=O)OC1CSC(Oc2cc(-c3ccc(C#N)cc3)cnc2F)C(OC(C)=O)C1OC(C)=O` (configuration not stated): 132 to 133 °C; `Cc1cn([C@H]2CC[C@@H]3CC(=O)N[C@H]2C3)c(=O)n(COCc2ccccc2)c1=O`: 160 to 162 °C; `O=C1COC2(CCN(CCCC(=O)c3ccc(F)cc3)CC2)CN1`: 117 to 118 °C.
Take `CC(=O)Oc1ccccc1NC(=O)c1cc(Cl)c(OC(C)=O)c(Cl)c1`: the melting point is 154 to 156 °C.
On to `Cc1cc(C(C)(C)C)cc(C)c1C1C(=O)CC(C)(C)CC1=O`, for which the melting point is 224 to 249 °C.
In turn, `Cc1cc(C)c2c(=O)cc(C(=O)O)[nH]c2c1` yielded a melting point of 285 to 287 °C.
Consider `CN(C)Cc1cc(C(=O)Nc2nc(-c3ccco3)c(C(=O)c3ccccc3)s2)ccn1`, for which the melting point lay within 205 to 209 °C.
For `CCc1nn(Cc2ccccn2)c2c(=O)[nH]c(-c3cc(S(C)(=O)=O)ccc3OCC(C)C)nc12`, the melting point fell in the range of 223 to 225 °C.
For `CC(NC(=O)c1cc(Cl)ccc1N)C1CC1` (configuration not stated), the melting point came to 135 °C.
Next, `CCOC(=O)c1cnc2ccc(C3CCCCCC3)cc2c1Cl`: 61 to 62 °C; `O=C(O)c1ccc(N2CCSCC2)cc1`: 233 to 235 °C; `Cc1nc(Cl)c2c(-c3ccc([N+](=O)[O-])o3)nn(C)c2n1`: 212 °C.
`CCn1cc(C(=O)O)c(=O)c2cc(F)c(N3CCN(C)C(COc4ccccc4)C3)cc21` (configuration not stated) had a melting point of 202 to 204 °C.
Take `NCc1ccc(-n2c(-c3cccnc3N)nc3ccc(-c4ccccc4)nc32)cc1`: the melting point was 215 to 218 °C.
Regarding `CCOC(=O)c1nc(N)sc1C(=O)c1ccccn1`, the melting point is 143 to 144 °C.
`COc1cc2c(cc1C(F)(F)F)N(C(=O)Nc1cncc(Br)c1)CC2` had a melting point of 220 to 222 °C.
Compound `CCCc1c(OCCCOc2ccc3c(c2CCC)OC(C)(CCC(=O)N(C)CC(=O)OCC)CC3=O)ccc(C(C)=O)c1O` (configuration not stated) came in with a melting point of 101 to 102 °C.
`COC(CN/C=C\C(=C(C#N)C#N)c1ccc2cc(N(C)C)ccc2c1)OC` registered a melting point of 158 to 159 °C.
Next, `CCOC(=O)c1c(N2CCN(C(=O)c3cccs3)CC2)c2cccnc2n(Cc2ccc(F)cc2)c1=O`: 196 °C.
In turn, `CC(=O)Nc1ccc(C(C)=O)cn1` gave a melting point of 146 to 147 °C.
The compound `CCCOC(=O)C1=NN(c2ccccc2)C(C(=O)OCCC)=NN1c1ccccc1` had a melting point of 82.5 to 83 °C.
Compound `Cn1ncnc1COc1nn2c(-c3ccc(F)cc3)nncc2c1C(C)(C)C` gave a melting point of 197 °C.
The compound `CC(O)C1CCC2C3CCC4=CC(=O)CCC4(C)C3CCC12C` (configuration not stated) yielded a melting point of 163 to 166 °C.
In turn, `Cn1c(CO)nc2ccc(OCc3ccccc3)nc21` returned a melting point of 133 to 135 °C.
